Experimental findings from patent US20240024488A1, “COMPOUNDS AND USES THEREOF” (Foghorn Therapeutics Inc., priority 2020, published 2024) are described below.

Where only a bound is given, the exact number is not on record here.

Assay [1] addresses T1, HiBit-BRG1 fusion protein (Homo sapiens, UniProt P51532).
T1 construct: expressed in transfected cells
Kind of assay: HiBiT-BRG1 cell-based degradation assay (Nano-Glo HiBiT Lytic Detection, 24 h). The following applies: HeLa cell line expressing HiBit-BRG1 and LgBit; for Dmax: read-out: BRG1 HiBit Degradation Maximum (%); for DC50: read-out: BRMG1 HiBit Degradation IC50. The gist of the method:
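Seed 5000 HeLa HiBit-BRG1/LgBit cells per well; treat 24 h; equilibrate 15 min at room temperature; add Nano-Glo HiBiT lytic reagent, shake 10 min, read luminescence. Percent degradation is scaled between DMSO and 2 μM reference degrader wells.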

For assay [2], the target named is T2, HiBit-BRM fusion protein (Homo sapiens, UniProt P51531).
T2 construct: expressed in transfected cells
The assay can be described thus: HiBiT-BRM cell-based degradation assay (Nano-Glo HiBiT Lytic Detection, 24 h). Particulars: HeLa cell line expressing HiBiT-BRM; for DC50: read-out: BRM HiBit Degradation IC50. The gist of the method:
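Stable HiBiT-BRM HeLa line; 24 h compound exposure, top final 30 μM, 3-fold, 10 pts in duplicate. Lytic HiBiT/LgBiT luminescence readout. % degradation vs DMSO (0%) and 2 μM known BRM/BRG1 degrader (100%).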

T2 sequence (P51531 whole entry, the tested form may be a part): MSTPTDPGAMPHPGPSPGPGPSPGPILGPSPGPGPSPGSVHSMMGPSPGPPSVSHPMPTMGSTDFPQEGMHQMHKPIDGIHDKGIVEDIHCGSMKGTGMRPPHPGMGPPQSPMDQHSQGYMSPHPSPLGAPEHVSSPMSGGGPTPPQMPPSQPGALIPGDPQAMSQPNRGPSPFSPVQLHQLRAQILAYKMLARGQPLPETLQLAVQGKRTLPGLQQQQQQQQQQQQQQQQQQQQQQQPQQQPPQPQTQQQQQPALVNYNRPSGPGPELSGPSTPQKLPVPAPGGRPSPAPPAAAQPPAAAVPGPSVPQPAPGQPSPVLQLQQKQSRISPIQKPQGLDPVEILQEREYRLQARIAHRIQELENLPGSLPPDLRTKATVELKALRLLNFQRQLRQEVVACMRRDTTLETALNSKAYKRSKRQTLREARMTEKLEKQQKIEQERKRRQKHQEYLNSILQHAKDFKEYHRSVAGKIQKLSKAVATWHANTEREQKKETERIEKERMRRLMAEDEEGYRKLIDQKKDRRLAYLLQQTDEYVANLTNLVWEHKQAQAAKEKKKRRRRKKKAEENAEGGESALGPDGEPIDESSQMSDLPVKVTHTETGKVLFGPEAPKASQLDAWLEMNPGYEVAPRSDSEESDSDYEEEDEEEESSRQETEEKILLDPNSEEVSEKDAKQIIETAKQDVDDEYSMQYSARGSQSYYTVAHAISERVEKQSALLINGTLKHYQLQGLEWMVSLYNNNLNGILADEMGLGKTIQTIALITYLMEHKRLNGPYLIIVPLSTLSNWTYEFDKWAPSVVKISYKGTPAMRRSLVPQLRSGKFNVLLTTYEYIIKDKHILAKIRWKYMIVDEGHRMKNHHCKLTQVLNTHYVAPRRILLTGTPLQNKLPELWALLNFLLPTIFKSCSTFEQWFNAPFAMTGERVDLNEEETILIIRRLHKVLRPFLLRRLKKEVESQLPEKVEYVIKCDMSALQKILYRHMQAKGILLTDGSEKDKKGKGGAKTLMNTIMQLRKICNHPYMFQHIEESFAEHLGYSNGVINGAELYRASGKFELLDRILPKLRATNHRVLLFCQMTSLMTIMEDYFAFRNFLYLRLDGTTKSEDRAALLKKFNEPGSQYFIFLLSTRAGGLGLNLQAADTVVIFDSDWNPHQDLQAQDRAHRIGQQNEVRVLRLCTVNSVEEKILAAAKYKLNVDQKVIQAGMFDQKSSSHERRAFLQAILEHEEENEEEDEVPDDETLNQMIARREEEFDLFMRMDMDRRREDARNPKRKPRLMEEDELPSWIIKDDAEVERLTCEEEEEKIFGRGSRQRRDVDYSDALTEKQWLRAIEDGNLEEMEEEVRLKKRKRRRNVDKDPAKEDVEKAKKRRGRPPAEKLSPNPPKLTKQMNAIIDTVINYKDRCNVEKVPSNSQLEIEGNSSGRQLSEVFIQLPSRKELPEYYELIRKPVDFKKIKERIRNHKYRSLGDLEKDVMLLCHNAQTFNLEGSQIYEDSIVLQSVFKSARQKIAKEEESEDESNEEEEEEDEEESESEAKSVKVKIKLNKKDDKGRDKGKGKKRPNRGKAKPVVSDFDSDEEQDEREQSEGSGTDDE
T1 sequence (P51532 whole entry, the tested form may be a part): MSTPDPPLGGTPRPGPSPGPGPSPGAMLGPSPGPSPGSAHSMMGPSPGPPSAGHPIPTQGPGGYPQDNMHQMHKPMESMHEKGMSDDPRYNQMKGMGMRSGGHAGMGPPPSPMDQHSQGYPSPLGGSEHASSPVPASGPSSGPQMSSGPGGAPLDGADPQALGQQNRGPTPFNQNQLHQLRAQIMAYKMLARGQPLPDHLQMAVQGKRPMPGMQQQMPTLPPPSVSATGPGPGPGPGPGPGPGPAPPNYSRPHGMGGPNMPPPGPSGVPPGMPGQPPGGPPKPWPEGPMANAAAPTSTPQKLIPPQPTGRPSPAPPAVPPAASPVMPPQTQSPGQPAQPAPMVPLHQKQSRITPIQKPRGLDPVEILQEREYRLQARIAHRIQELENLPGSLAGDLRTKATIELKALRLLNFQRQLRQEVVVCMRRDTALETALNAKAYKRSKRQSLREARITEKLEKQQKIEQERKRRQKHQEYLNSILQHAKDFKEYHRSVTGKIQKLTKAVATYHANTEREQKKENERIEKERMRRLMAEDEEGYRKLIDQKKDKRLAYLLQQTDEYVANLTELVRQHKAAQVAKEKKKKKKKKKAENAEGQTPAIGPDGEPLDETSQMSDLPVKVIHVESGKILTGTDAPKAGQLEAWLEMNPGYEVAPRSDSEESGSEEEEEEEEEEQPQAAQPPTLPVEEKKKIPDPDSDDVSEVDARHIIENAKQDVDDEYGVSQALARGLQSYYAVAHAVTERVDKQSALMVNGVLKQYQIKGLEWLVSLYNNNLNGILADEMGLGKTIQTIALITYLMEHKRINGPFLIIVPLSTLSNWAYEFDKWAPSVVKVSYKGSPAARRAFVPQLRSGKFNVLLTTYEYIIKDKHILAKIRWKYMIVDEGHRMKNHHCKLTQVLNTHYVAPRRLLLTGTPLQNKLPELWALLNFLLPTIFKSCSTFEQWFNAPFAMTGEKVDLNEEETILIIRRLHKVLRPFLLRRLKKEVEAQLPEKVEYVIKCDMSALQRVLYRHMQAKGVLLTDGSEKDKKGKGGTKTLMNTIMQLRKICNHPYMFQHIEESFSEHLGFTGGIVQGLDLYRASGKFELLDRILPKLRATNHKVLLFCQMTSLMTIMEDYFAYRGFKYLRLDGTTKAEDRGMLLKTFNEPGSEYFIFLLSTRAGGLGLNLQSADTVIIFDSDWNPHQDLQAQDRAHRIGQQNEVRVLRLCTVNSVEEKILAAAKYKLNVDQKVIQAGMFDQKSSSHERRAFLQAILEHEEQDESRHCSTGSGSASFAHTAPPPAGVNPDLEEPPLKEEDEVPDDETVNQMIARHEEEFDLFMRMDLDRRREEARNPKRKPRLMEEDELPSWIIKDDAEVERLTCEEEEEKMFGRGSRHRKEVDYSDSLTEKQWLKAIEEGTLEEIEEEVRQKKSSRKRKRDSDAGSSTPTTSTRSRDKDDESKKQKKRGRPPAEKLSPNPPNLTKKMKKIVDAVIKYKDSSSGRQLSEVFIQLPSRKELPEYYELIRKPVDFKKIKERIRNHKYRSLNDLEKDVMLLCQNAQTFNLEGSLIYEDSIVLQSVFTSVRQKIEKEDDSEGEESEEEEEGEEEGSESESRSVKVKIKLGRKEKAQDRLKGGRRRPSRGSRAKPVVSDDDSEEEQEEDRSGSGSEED

With `Cc1ncsc1-c1ccc([C@H](C)NC(=O)[C@@H]2C[C@@H](O)CN2C(=O)[C@@H](c2cc(C3CN(C(=O)c4cc5cc(-c6ccccc6O)nnc5[nH]4)C3)no2)C(C)C)cc1` (single isomer, unassigned) [Compound 178], the Dmax in assay [1] was less than 50%. In addition, the “BRM HiBit Degradation Maximum (%)” value in assay [2] is “C (“C” indicates maximum degradation < 50%)”.

For `Cc1ncsc1-c1ccc([C@H](C)NC(=O)[C@@H]2C[C@@H](O)CN2C(=O)[C@@H](c2cc(OCCN3C[C@@H]4[C@H](C3)[C@H]4c3cc4cc(-c5cccc(F)c5O)nnc4[nH]3)no2)C(C)C)cc1` (racemic) [Compound 142, (2S,4R)-1-((R)-2-(3-(2-((1R,5S,6R)-6-(3-(3-fluoro-2-hydroxyphenyl)-7H-pyrrolo[2,3-c]pyridazin-6-yl)-3-azabicyclo[3.1.0]hexan-3-yl)ethoxy)isoxazol-5-yl)-3-methylbutanoyl)-4-hydroxy-N-((S)-1-(4-(4-methylthiazol-5-yl)phenyl)ethyl)pyrrolidine-2-carboxamide], the Dmax in assay [1] is less than 50%. Also, in assay [2], the “BRM HiBit Degradation Maximum (%)” value is recorded as “A (“A” indicates maximum degradation ≥ 75%)” and the DC50 was more than 0.01 µM.

For the compound `Cc1ncsc1-c1ccc([C@H](C)NC(=O)[C@@H]2C[C@@H](O)CN2C(=O)[C@@H](c2cc(OCCN3CC(C)(c4cc5cc(-c6ccccc6O)nnc5[nH]4)C3)no2)C(C)C)cc1` (racemic) [Compound 275, (2S,4R)-4-hydroxy-1-((R)-2-(3-(2-(3-(3-(2-hydroxyphenyl)-7H-pyrrolo[2,3-c]pyridazin-6-yl)-3-methylazetidin-1-yl)ethoxy)isoxazol-5-yl)-3-methylbutanoyl)-N-((S)-1-(4-(4-methylthiazol-5-yl)phenyl)ethyl)pyrrolidine-2-carboxamide], in assay [1], the Dmax is less than 50%. Further, in assay [2], the “BRM HiBit Degradation Maximum (%)” value was “A (“A” indicates maximum degradation ≥ 75%)” and the DC50 was more than 0.01 µM.

Regarding `Cc1ncsc1-c1ccc([C@H](C)NC(=O)[C@@H]2C[C@@H](O)CN2C(=O)[C@@H](c2cc(N3C[C@@H]4C[C@H]3CN4C(=O)[C@H]3C[C@]4(Cc5cc(-c6ccccc6O)nnc5N4)C3)no2)C(C)C)cc1` (racemic) [Compound 78, (2S,4R)-4-hydroxy-1-((R)-2-(3-((1S,4S)-5-((1R,3r)-3′-(2-hydroxyphenyl)-5′,7′-dihydrospiro[cyclobutane-1,6′-pyrrolo[2,3-c]pyridazine]-3-carbonyl)-2,5-diazabicyclo[2.2.1]heptan-2-yl)isoxazol-5-yl)-3-methylbutanoyl)-N-((S)-1-(4-(4-methylthiazol-5-yl)phenyl)ethyl)pyrrolidine-2-carboxamide], in assay [1], the Dmax is less than 50%. In addition, in assay [2], the “BRM HiBit Degradation Maximum (%)” value was “A (“A” indicates maximum degradation ≥ 75%)” and the DC50 is more than 0.1 µM.

Regarding `Cc1ncsc1-c1ccc([C@H](C)NC(=O)[C@@H]2C[C@@H](O)CN2C(=O)[C@@H](c2cc(OCCCN[C@@H]3CCc4[nH]c5nnc(-c6ccccc6O)cc5c4C3)no2)C(C)C)cc1` (single isomer, unassigned) [Compound 145], the Dmax in assay [1] is less than 50%. In addition, in assay [2], the “BRM HiBit Degradation Maximum (%)” value is recorded as “A (“A” indicates maximum degradation ≥ 75%)” and the DC50 is more than 0.1 µM.

On to `Cc1ncsc1-c1ccc(C(C)NC(=O)C2CC(O)CN2C(=O)C(c2cc(OCCN3CC4C(C3)C4c3cc4cc(-c5cc(F)cc(F)c5O)nnc4[nH]3)no2)C(C)C)cc1` [Compound 141, (2S,4R)-1-((R)-2-(3-(2-((1R,5S,6R)-6-(3-(3,5-difluoro-2-hydroxyphenyl)-7H-pyrrolo[2,3-c]pyridazin-6-yl)-3-azabicyclo[3.1.0]hexan-3-yl)ethoxy)isoxazol-5-yl)-3-methylbutanoyl)-4-hydroxy-N-((S)-1-(4-(4-methylthiazol-5-yl)phenyl)ethyl)pyrrolidine-2-carboxamide], for which the Dmax in assay [1] is less than 50%. Also, in assay [2], the “BRM HiBit Degradation Maximum (%)” value is given as “A (“A” indicates maximum degradation ≥ 75%)” and the DC50 is more than 0.01 µM.

As for `Cc1ncsc1-c1ccc([C@H](C)NC(=O)[C@@H]2C[C@@H](O)CN2C(=O)[C@@H](c2cc(OCCCN3CC(c4[nH]c5nnc(-c6ccccc6O)cc5c4C)C3)no2)C(C)C)cc1` (racemic) [Compound 229, (2S,4R)-4-hydroxy-1-((R)-2-(3-(3-(3-(3-(2-hydroxyphenyl)-5-methyl-7H-pyrrolo[2,3-c]pyridazin-6-yl)azetidin-1-yl)propoxy)isoxazol-5-yl)-3-methylbutanoyl)-N-((S)-1-(4-(4-methylthiazol-5-yl)phenyl)ethyl)pyrrolidine-2-carboxamide], the Dmax in assay [1] is less than 50%. Moreover, in assay [2], the “BRM HiBit Degradation Maximum (%)” value was “A (“A” indicates maximum degradation ≥ 75%)” and the DC50 is more than 1 µM.

As to `Cc1ncsc1-c1ccc([C@H](C)NC(=O)[C@@H]2C[C@@H](O)CN2C(=O)[C@@H](c2cc(N3CCC(N4CCc5[nH]c6nnc(-c7ccccc7O)cc6c5C4)CC3)no2)C(C)C)cc1` (racemic) [Compound 183, (2S,4R)-4-hydroxy-1-((R)-2-(3-(4-(3-(2-hydroxyphenyl)-5,7,8,9-tetrahydro-6H-pyrido[3′,4′:4,5]pyrrolo[2,3-c]pyridazin-6-yl)piperidin-1-yl)isoxazol-5-yl)-3-methylbutanoyl)-N-((S)-1-(4-(4-methylthiazol-5-yl)phenyl)ethyl)pyrrolidine-2-carboxamide], the Dmax in assay [1] is less than 50%. In assay [2], the “BRM HiBit Degradation Maximum (%)” value was “A (“A” indicates maximum degradation ≥ 75%)” and the DC50 is more than 0.1 µM.

In the case of `Cc1ncsc1-c1ccc([C@H](C)NC(=O)[C@@H]2C[C@@H](O)CN2C(=O)[C@@H](c2cc(OCCN3C[C@@H]4[C@H](C3)[C@H]4c3c[nH]c4nnc(-c5ccccc5O)cc34)no2)C(C)C)cc1` (racemic) [Compound 210, (2S,4R)-4-hydroxy-1-((R)-2-(3-(2-((1R,5S,6S)-6-(3-(2-hydroxyphenyl)-7H-pyrrolo[2,3-c]pyridazin-5-yl)-3-azabicyclo[3.1.0]hexan-3-yl)ethoxy)isoxazol-5-yl)-3-methylbutanoyl)-N-((S)-1-(4-(4-methylthiazol-5-yl)phenyl)ethyl)pyrrolidine-2-carboxamide], in assay [1], the Dmax is less than 50%. For the same compound, in assay [2], the “BRM HiBit Degradation Maximum (%)” value was “C (“C” indicates maximum degradation < 50%)”.

For the compound `Cc1ncsc1-c1ccc([C@H](C)NC(=O)C2C[C@@H](O)CN2C(=O)[C@@H](c2cc(OCCN3C[C@H]4C[C@@H](c5[nH]c6nnc(-c7ccccc7O)cc6c5C)C[C@H]4C3)no2)C(C)C)cc1` (single isomer, unassigned) [Compound 108], in assay [1], the Dmax was more than 75% and the DC50 was more than 0.01 µM. Further, in assay [2], the “BRM HiBit Degradation Maximum (%)” value is on record as “A (“A” indicates maximum degradation ≥ 75%)” and the DC50 is less than 0.01 µM.

As to `Cc1ncsc1-c1ccc([C@H](C)NC(=O)[C@@H]2C[C@@H](O)CN2C(=O)[C@@H](c2cc(C3CCN(C(=O)[C@@H]4CCc5[nH]c6nnc(-c7ccccc7O)cc6c5C4)CC3)no2)C(C)C)cc1` (single isomer, unassigned) [Compound 166], in assay [1], the Dmax is less than 50% and the DC50 is more than 1 µM. Besides, in assay [2], the “BRM HiBit Degradation Maximum (%)” value is reported as “A (“A” indicates maximum degradation ≥ 75%)” and the DC50 is more than 0.01 µM.

As to `Cc1ncsc1-c1ccc([C@H](C)NC(=O)[C@@H]2C[C@@H](O)CN2C(=O)[C@@H](c2cc(OCCN3CC4(CNc5nnc(-c6ccccc6O)cc54)C3)no2)C(C)C)cc1` (racemic) [Compound 177, (2S,4R)-4-hydroxy-1-((R)-2-(3-(2-(3′-(2-hydroxyphenyl)-6′,7′-dihydrospiro[azetidine-3,5′-pyrrolo[2,3-c]pyridazin]-1-yl)ethoxy)isoxazol-5-yl)-3-methylbutanoyl)-N-((S)-1-(4-(4-methylthiazol-5-yl)phenyl)ethyl)pyrrolidine-2-carboxamide], in assay [1], the Dmax was less than 50%. For the same compound, in assay [2], the “BRM HiBit Degradation Maximum (%)” value was “B (“B” indicates maximum degradation ≥ 50%)” and the DC50 was more than 1 µM.

In the case of `Cc1ncsc1-c1ccc([C@H](C)NC(=O)[C@@H]2C[C@@H](O)CN2C(=O)[C@@H](c2cc(CCCN3CC(c4cc5cc(-c6ccccc6O)nnc5[nH]4)C3)no2)C(C)C)cc1` (single isomer, unassigned) [Compound 204], the Dmax in assay [1] was less than 50%. For the same compound, in assay [2], the “BRM HiBit Degradation Maximum (%)” value is reported as “A (“A” indicates maximum degradation ≥ 75%)” and the DC50 is more than 0.1 µM.

As for `Cc1ncsc1-c1ccc([C@H](C)NC(=O)[C@@H]2C[C@@H](O)CN2C(=O)[C@@H](c2cc(OCCN3C[C@@H]4[C@H](C3)[C@H]4c3[nH]c4nnc(-c5ccccc5O)cc4c3Cl)no2)C(C)C)cc1` (racemic) [Compound 131, (2S,4R)-1-[(2R)-2-(3-{2-[(1R,5S,6S)-6-[5-chloro-3-(2-hydroxyphenyl)-7H-pyrrolo[2,3-c]pyridazin-6-yl]-3-azabicyclo[3.1.0]hexan-3-yl]ethoxy}-1,2-oxazol-5-yl)-3-methylbutanoyl]-4-hydroxy-N-[(1S)-1-[4-(4-methyl-1,3-thiazol-5-yl)phenyl]ethyl]pyrrolidine-2-carboxamide], in assay [1], the Dmax was more than 50% and the DC50 was more than 0.1 µM. Moreover, in assay [2], the “BRM HiBit Degradation Maximum (%)” value is on record as “A (“A” indicates maximum degradation ≥ 75%)” and the DC50 is more than 0.01 µM.

In the case of `Cc1ncsc1-c1ccc([C@H](C)NC(=O)[C@@H]2C[C@@H](O)CN2C(=O)[C@H](c2cc(N3C[C@@H]4C[C@H]3CN4C(=O)[C@@H]3CCc4[nH]c5nnc(-c6ccccc6O)cc5c4C3)no2)C(C)C)cc1` (single isomer, unassigned) [Compound 100], the Dmax in assay [1] is less than 50%. For the same compound, in assay [2], the “BRM HiBit Degradation Maximum (%)” value is reported as “C (“C” indicates maximum degradation < 50%)”.
